Reference: patent US11753407B2, “Compounds for treating spinal muscular atrophy” (PTC Therapeutics, Inc., priority 2012, dated 2023)

How the values were obtained:
[1] = tested on: SMN2 minigene mRNA (SMN2-A minigene) in HEK293H cells; assay: SMN2 minigene mRNA splicing RT-qPCR assay in cultured cells; assay type: cell-based, human; conditions: Homo sapiens, HEK293-H; concentration increasing full length SMN2 mRNA 1.5-fold relative to vehicle-treated cells; HEK293H cells with SMN2-A minigene, 24 hours, 7-point concentration data; read-out: EC1.5x for production of full length SMN2 mRNA
Method in brief: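 EC1.5× values derive from a 24 h treatment of SMN2-A minigene HEK293H cells and GAPDH-normalized RT-qPCR of exon 7-included minigene mRNA relative to vehicle-treated cells.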

[2] = tested on: Smn protein in SMA patient fibroblast cells (GM03813); assay: Smn protein assay in cultured cells (SMN HTRF); assay type: cell-based, human; conditions: SMA patient fibroblast cells, 48 hours; for maximum fold (Fold) increase of Smn protein: 7-point concentration data, fold relative to vehicle control; for EC1.5x for Smn protein expression: 7-point concentration curve, SMN HTRF, concentration producing 1.5 times Smn protein vs DMSO vehicle control
Method in brief: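 Cells were cultured 72 h, seeded at 5,000/well and dosed with seven concentrations (3.16-fold apart) for 48 h. HTRF on lysates, read at 665 and 620 nm, gave blank-corrected ΔF values relative to DMSO. Potency is reported as EC1.5×, efficacy as maximal fold Smn increase.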

melting point [°C] | Compound | EC (1.5-fold increase) [1] [µM] | maximum fold (Fold) increase of Smn protein [2] | EC1.5x for Smn protein expression [2]
175 to 178 | O=c1cc(-c2cccnc2)nc2ccc(N3CCNCC3)cn12 [Compound 228, 7-(piperazin-1-yl)-2-(pyridin-3-yl)-4H-pyrido[1,2-a]pyrimidin-4-one] | 1 to 3 | ** (a fold increase between >1.2 and ≤1.35 is indicated by two stars (**)) | 
192 to 195 | COc1cncc(-c2cc(=O)n3cc(N4CCNCC4)ccc3n2)c1 [Compound 229, 2-(5-methoxypyridin-3-yl)-7-(piperazin-1-yl)-4H-pyrido[1,2-a]pyrimidin-4-one] | 0.3 to 1 | *** (a fold increase between >1.35 and ≤1.5 is indicated by three stars (***)) | * (An EC1.5× for Smn protein expression between >3 μM and ≤10 μM is indicated by one star (*))
185 to 188 | C[C@H]1CN(c2ccc3nc(-c4cc(F)cc(C#N)c4)cc(=O)n3c2)CCN1 [Compound 230, 3-fluoro-5-{7-[(3S)-3-methylpiperazin-1-yl]-4-oxo-4H-pyrido[1,2-a]pyrimidin-2-yl}benzonitrile] | 0.3 to 1 | **** (a fold increase between >1.5 and ≤1.65 is indicated by four stars (****)) | ** (an EC1.5× between >1 μM and ≤3 μM is indicated by two stars (**))
238 to 244 | N#Cc1cc(F)cc(-c2cc(=O)n3cc(N4CCNCC4)ccc3n2)c1 [Compound 231, 3-fluoro-5-[4-oxo-7-(piperazin-1-yl)-4H-pyrido[1,2-a]pyrimidin-2-yl]benzonitrile] | 0.3 to 1 | **** (a fold increase between >1.5 and ≤1.65 is indicated by four stars (****)) | ** (an EC1.5× between >1 μM and ≤3 μM is indicated by two stars (**))
226 to 232 | COc1ccc(-c2cc(=O)n3cc(N4C[C@H](O)[C@@H](N5CCCC5)C4)ccc3n2)cc1F [Compound 232, 2-(3-fluoro-4-methoxyphenyl)-7-[(3′S,4′S)-4′-hydroxy-1,3′-bipyrrolidin-1′-yl]-4H-pyrido[1,2-a]pyrimidin-4-one] | 1 to 3 | * (A maximum fold increase of ≤1.2 is indicated by one star (*)) | 

Further lines, the compound ahead of its results:

Compound | melting point [°C] | EC (1.5-fold increase) [1] [µM] | maximum fold (Fold) increase of Smn protein [2] | EC1.5x for Smn protein expression [2]
COc1cc(-c2cc(=O)n3cc(N4CCNCC4)ccc3n2)ccc1F [Compound 216, 2-(4-fluoro-3-methoxyphenyl)-7-(piperazin-1-yl)-4H-pyrido[1,2-a]pyrimidin-4-one] | 170 to 172 | 0.3 to 1 | *** (a fold increase between >1.35 and ≤1.5 is indicated by three stars (***)) | 
COc1cc(-c2cc(=O)n3cc(N4CCN[C@@H](C)C4)ccc3n2)cc(F)c1F [Compound 217, 2-(3,4-difluoro-5-methoxyphenyl)-7-[(3S)-3-methylpiperazin-1-yl]-4H-pyrido[1,2-a]pyrimidin-4-one] | 160 to 164 | 0.3 to 1 | *** (a fold increase between >1.35 and ≤1.5 is indicated by three stars (***)) | 
COc1cc(-c2cc(=O)n3cc(N4CCNCC4)ccc3n2)cc(F)c1F [Compound 218, 2-(3,4-difluoro-5-methoxyphenyl)-7-(piperazin-1-yl)-4H-pyrido[1,2-a]pyrimidin-4-one] | 155 to 160 | 0.1 to 0.3 | *** (a fold increase between >1.35 and ≤1.5 is indicated by three stars (***)) | ** (an EC1.5× between >1 μM and ≤3 μM is indicated by two stars (**))
Cc1nc2ccc(-c3cc(=O)n4cc(N5CCNCC5)ccc4n3)cc2s1 [Compound 219, 2-(2-methyl-1,3-benzothiazol-6-yl)-7-(piperazin-1-yl)-4H-pyrido[1,2-a]pyrimidin-4-one] | 218 to 220 | < 0.1 | **** (a fold increase between >1.5 and ≤1.65 is indicated by four stars (****)) | **** (an EC1.5x≤0.3 μM is indicated by four stars (****))
Cc1nc2ccc(-c3cc(=O)n4cc(N5CCN[C@@H](C)C5)ccc4n3)cc2s1 [Compound 221, 2-(2-methyl-1,3-benzothiazol-6-yl)-7-[(3S)-3-methylpiperazin-1-yl]-4H-pyrido[1,2-a]pyrimidin-4-one] | 214 to 216 | < 0.1 | ***** (a fold increase >1.65 is indicated by five stars (*****)) | **** (an EC1.5x≤0.3 μM is indicated by four stars (****))
CN[C@H]1CCN(c2ccc3nc(-c4ccc(OC)c(F)c4)cc(=O)n3c2)C1 [Compound 222, 2-(3-fluoro-4-methoxyphenyl)-7-[(3S)-3-(methylamino)pyrrolidin-1-yl]-4H-pyrido[1,2-a]pyrimidin-4-one] | 208 to 216 | 0.3 to 1 | *** (a fold increase between >1.35 and ≤1.5 is indicated by three stars (***)) | 
CNCC1CCN(c2ccc3nc(-c4ccc(OC)c(F)c4)cc(=O)n3c2)CC1 [Compound 223, 2-(3-fluoro-4-methoxyphenyl)-7-{4-[(methylamino)methyl]piperidin-1-yl}-4H-pyrido[1,2-a]pyrimidin-4-one] | 163 to 170 | 0.3 to 1 | *** (a fold increase between >1.35 and ≤1.5 is indicated by three stars (***)) | 
COc1ccc(-c2cc(=O)n3cc(N4CC[C@H](N)C4)ccc3n2)cc1F [Compound 224, 7-[(3S)-3-aminopyrrolidin-1-yl]-2-(3-fluoro-4-methoxyphenyl)-4H-pyrido[1,2-a]pyrimidin-4-one] | 193 to 198 | 0.3 to 1 | **** (a fold increase between >1.5 and ≤1.65 is indicated by four stars (****)) | *** (an EC1.5× between >0.3 μM and ≤1 μM is indicated by three stars (***))
COc1ccc(-c2cc(=O)n3cc(N[C@@H]4CCN(C)C4)ccc3n2)cc1F [Compound 225, 2-(3-fluoro-4-methoxyphenyl)-7-{[(3R)-1-methylpyrrolidin-3-yl]amino}-4H-pyrido[1,2-a]pyrimidin-4-one] | 197 to 202 | 1 to 3 | * (A maximum fold increase of ≤1.2 is indicated by one star (*)) | 
COc1ccc(-c2cc(=O)n3cc(N4CCC(CN(C)C)CC4)ccc3n2)cc1F [Compound 226, 7-{4-[(dimethylamino)methyl]piperidin-1-yl}-2-(3-fluoro-4-methoxyphenyl)-4H-pyrido[1,2-a]pyrimidin-4-one] | 178 to 185 | 0.3 to 1 | * (A maximum fold increase of ≤1.2 is indicated by one star (*)) | 
COc1cccc(-c2cc(=O)n3cc(N4CCNCC4)ccc3n2)n1 [Compound 227, 2-(6-methoxypyridin-2-yl)-7-(piperazin-1-yl)-4H-pyrido[1,2-a]pyrimidin-4-one] | 214 to 218 | 1 to 3 | *** (a fold increase between >1.35 and ≤1.5 is indicated by three stars (***)) | 
